Where “and” joins values, the source holds several entries; their conditions need not be identical. Equal entries are not always repeated. Marks after values point to notes of the source that are not given here.
Test system: sunflower lines (WT, A122T/A122T, A122T/P197L, P197L/P197L)
Assay: Greenhouse whole-plant response to metsulfuron methyl, Example 5
Format: in vivo, Helianthus annuus
Conditions: 14 DAT
Procedure: Seeds were sown in Petri dishes and, after germination, plantlets were transplanted into 10 cm pots containing potting media consisting of equal parts of vermiculite, soil, and sand. Plants were grown in the greenhouse under natural light conditions supplemented with 400 W sodium halide lamps to provide a 16 hr daylength. Day/night temperatures were 25 and 20° C., respectively. At the V2-V4 stage (Schneiter & Miller, 1981) 20 plants of each genotype were randomly assigned to each treatment consisting of three metsulfuron methyl doses (0 or no treatment, 5 g ai/ha or a 1× rate, and 10 g ai/ha or a 2× rate). A zero-time biomass determination was also conducted. The experiment was arranged as a randomized complete block design (RCBD) with a full factorial arrangement of treatments and 20 replications (sunflower line×treatment).
For the zero-time dried weight determination, ten plants of each genotype were cut at the cotyledonal node on the day of herbicide application and dried at 60° C. for 48 hr. The rest of the plants were maintained for 14 days after herbicide treatment (DAT) and their height, Phytotoxicity Index (PI) and above ground dry biomass were recorded. Height was determined as the distance between the cotyledonal node and the apex of each plant. The above ground biomass data for each line was converted to biomass accumulation after application by subtracting the appropriate average zero-time biomass from each sample. Height and dry biomass were converted to a percentage of the untreated control for each line to allow direct comparisons between groups.
The data was subjected to an ANOVA and the means were compared by an LSD test.

[1] = BTSu-R1 (P197L/P197L), 1X (5 g ai./ha)
[2] = BTSu-R1 (P197L/P197L), 2X (10 g ai./ha)
[3] = GM40 (A122T/A122T), 1X (5 g ai./ha)
[4] = GM40 (A122T/A122T), 2X (10 g ai./ha)
[5] = GM1606 (A122T/A122T), 1X (5 g ai./ha)
[6] = GM1606 (A122T/A122T), 2X (10 g ai./ha)
[7] = L4 (A122T/A122T), 1X (5 g ai./ha)
[8] = L4 (A122T/A122T), 2X (10 g ai./ha)
[9] = cmsGM40xBTSu-R1 (A122T/P197L), 1X (5 g ai./ha)
[10] = cmsGM40xBTSu-R1 (A122T/P197L), 2X (10 g ai./ha)
[11] = cmsGM40xL4 (A122T/A122T), 1X (5 g ai./ha)
[12] = cmsGM40xL4 (A122T/A122T), 2X (10 g ai./ha)

## COC(=O)c1ccccc1S(=O)(=O)NC(=O)Nc1nc(C)nc(OC)n1 [metsulfuron]
B770 (WT), 1X (5 g ai./ha)
  Dry Matter accumulation (DMA): 28.43^b %
  Phytotoxicity Index (PI) (scale 0-9): 8.50^bc
B770 (WT), 2X (10 g ai./ha)
  Dry Matter accumulation (DMA): 28.77^b %
  Mean Height Reduction (PH): 18.20^a %
  Phytotoxicity Index (PI) (scale 0-9): 9.00^d
[1]
  Dry Matter accumulation (DMA): 88% and 88.1% and 88.10^d %
  Mean Height Reduction (PH): 79.01^b %
[2]
  Dry Matter accumulation (DMA): 77% and 76.69^c %
  Mean Height Reduction (PH): 80.85^c %
[3]
  Dry Matter accumulation (DMA): 25.73^ab %
  Mean Height Reduction (PH): 21.39^a %
  Phytotoxicity Index (PI) (scale 0-9): 9.00^d
[4]
  Dry Matter accumulation (DMA): 20.69^a %
  Mean Height Reduction (PH): 21.17^a %
  Phytotoxicity Index (PI) (scale 0-9): 9.00^d
[5]
  Dry Matter accumulation (DMA): 30.39^b %
  Mean Height Reduction (PH): 21.55^a %
  Phytotoxicity Index (PI) (scale 0-9): 8.70^d
[6]
  Dry Matter accumulation (DMA): 20.45^a %
  Mean Height Reduction (PH): 21.70^a %
  Phytotoxicity Index (PI) (scale 0-9): 9.00^d
[7]
  Dry Matter accumulation (DMA): 25.40^ab %
  Mean Height Reduction (PH): 19.47^a %
  Phytotoxicity Index (PI) (scale 0-9): 8.25^b
[8]
  Dry Matter accumulation (DMA): 18.80^a %
  Mean Height Reduction (PH): 18.73^a %
  Phytotoxicity Index (PI) (scale 0-9): 8.5^c
[9]
  Dry Matter accumulation (DMA): 74.4% and 74.36^c %
  Mean Height Reduction (PH): 77.04^b %
  Phytotoxicity Index (PI) (scale 0-9): 0.00^a
[10]
  Dry Matter accumulation (DMA): 72.66^c %
  Mean Height Reduction (PH): 62% and 61.99^b %
[11]
  Dry Matter accumulation (DMA): 19.90^a %
  Mean Height Reduction (PH): 22.45^a %
  Phytotoxicity Index (PI) (scale 0-9): 8.67 ^d
[12]
  Dry Matter accumulation (DMA): 18.23^a %
  Mean Height Reduction (PH): 20.56^a %
  Phytotoxicity Index (PI) (scale 0-9): 8.82^cd

From patent publication US20150148235A1, “HERBICIDE-RESISTANT SUNFLOWER PLANTS WITH MULTIPLE HERBICIDE RESISTANT ALLELES OF AHASL1 AND METHODS OF USE” (NIDERA S.A., priority 2013, published 2015)
